Test results: US10906889B2, “Polycyclic inhibitors of cyclin-dependent kinase 7 (CDK7)” (Dana-Farber Cancer Institute, Inc., priority 2013, dated 2021)
Where two headings read alike, the source gives them in different places.

What was measured:
Hs822T = experiment: Cell proliferation (CellTiter-Glo, 72 hour), Hs822T; format: cell-based; settings: Ewing's sarcoma cell line, read-out: Hs822T inhibition of proliferation (IC50)
CDK9/cyclin T1 = CDK9/cyclin T1 (Homo sapiens, UniProt P50750); experiment: Adapta kinase assay (Life Technologies), CDK9/cyclin T1; settings: for inhibition at 0.1 µM: read-out: CDK9^a,e percent inhibition; for inhibition at 1 µM: read-out: CDK9^b,e percent inhibition
Description: (§1) Compounds of the invention were assayed for activity against a variety of different kinases at Life Technologies™ (Grand Island, N.Y.) using their commercially available Adapta® (for CDK7, CDK9/cyclin T1, and IRAK1 kinases), Z′-Lyte® (for CDK1, CDK2, CDK5/p25, CDK5/p35, JNK1 and JNK2 kinases), and LanthaScreen Eu® (for CDK8, CDK9/cyclin K and MLK3) kinase assay services. Test compounds were tested at 100 nM and 1 μM final concentrations in 1% DMSO against all kinases except CDK7. For CDK7, test compounds were tested at concentrations ranging from 10 μM to 0.514 nM in a series of 3-fold serial dilutions. […] The co-factors used for each kinase in the assays were as follows: CDK1: cyclin B; CDK2: cyclin A; CDK5: p25 or p35 as indicated; CDK7: cyclin H and MNAT1; CDK8: cyclin C; CDK9: cyclin K or cyclin T1 as indicated; IRAK1: Histone H3 (1-20) peptide; JNK1: none required; JNK2: none required; MLK3: none required.

CDK8 = biological target: T1, CDK8 (Homo sapiens, UniProt P49336); experiment: LanthaScreen Eu kinase assay (Life Technologies), CDK8; format: binding; settings: co-factor cyclin C; for inhibition at 0.1 µM: compound tested at 100 nM, read-out: CDK8^a percent inhibition; for inhibition at 1 µM: compound tested at 1 μM, read-out: CDK8^b percent inhibition
T1 construct: purchased Life Technologies (assay service)

SKBR3 = experiment: Cell proliferation (CellTiter-Glo, 72 hour), SKBR3; format: cell-based; settings: Homo sapiens, SK-BR-3, breast cancer cell line, read-out: SKBR3 inhibition of proliferation (IC50)
IRAK1 = biological target: T2, IRAK1 (Homo sapiens, UniProt P51617); experiment: Adapta kinase assay (Life Technologies), IRAK1; format: biochemical; settings: for inhibition at 0.1 µM: compound tested at 100 nM, read-out: IRAK1^a percent inhibition; for inhibition at 1 µM: compound tested at 1 μM, read-out: IRAK1^b percent inhibition
T2 construct: purchased Life Technologies (assay service)

THP-1 = experiment: Cell proliferation (CellTiter-Glo, 72 hour), THP-1; format: cell-based; settings: Homo sapiens, blood cancer cell line, read-out: THP-1 inhibition of proliferation (IC50)
MDA-MB231 = experiment: Cell proliferation (CellTiter-Glo, 72 hour), MDA-MB231; format: cell-based; settings: Homo sapiens, MDA-MB-231, breast cancer cell line, read-out: MDA-MB231 inhibition of proliferation (IC50)
Jurkat cells = experiment: Cell proliferation (CellTiter-Glo, 72 hour), Jurkat; format: cell-based; settings: Homo sapiens, blood cancer cell line
MCF7 = experiment: Cell proliferation (CellTiter-Glo, 72 hour), MCF7; format: cell-based; settings: Homo sapiens, breast cancer cell line, read-out: MCF7 inhibition of proliferation (IC50)
MCF10A = experiment: Cell proliferation (CellTiter-Glo, 72 hour), MCF10A; format: cell-based; settings: Homo sapiens, MCF-10A, breast cancer cell lines table, read-out: MCF10A inhibition of proliferation (IC50)
CDK2 = biological target: T3, CDK2 (Homo sapiens, UniProt P24941); experiment: Z'-Lyte kinase assay (Life Technologies), CDK2; format: biochemical; settings: co-factor cyclin A; for inhibition at 0.1 µM: compound tested at 100 nM, read-out: CDK2^a percent inhibition; for inhibition at 1 µM: compound tested at 1 μM, read-out: CDK2^b percent inhibition
T3 construct: purchased Life Technologies (assay service)

SK-ES-1 = experiment: Cell proliferation (CellTiter-Glo, 72 hour), SK-ES-1; format: cell-based; settings: Homo sapiens, SK-ES1, Ewing's sarcoma cell line, read-out: SK-ES-1 inhibition of proliferation (IC50)
MV4-11 = experiment: Cell proliferation (CellTiter-Glo, 72 hour), MV4-11; format: cell-based; settings: Homo sapiens, blood cancer cell line, read-out: MV4-11 inhibition of proliferation (IC50)
T47D = experiment: Cell proliferation (CellTiter-Glo, 72 hour), T47D; format: cell-based; settings: Homo sapiens, breast cancer cell line, read-out: T47D inhibition of proliferation (IC50)
HL60 = experiment: Cell proliferation (CellTiter-Glo, 72 hour), HL60; format: cell-based; settings: Homo sapiens, HL-60, blood cancer cell line, read-out: HL60 inhibition of proliferation (IC50)
hTERT-HME1 = experiment: Cell proliferation (CellTiter-Glo, 72 hour), hTERT-HME1; format: cell-based; settings: breast cancer cell lines table, read-out: hTERT-HME1 inhibition of proliferation (IC50)
CDK1 = biological target: T4, CDK1 (Homo sapiens, UniProt P06493); experiment: Z'-Lyte kinase assay (Life Technologies), CDK1; format: biochemical; settings: co-factor cyclin B; for inhibition at 0.1 µM: compound tested at 100 nM, read-out: CDK1^a percent inhibition; for inhibition at 1 µM: compound tested at 1 μM, read-out: CDK1^b percent inhibition
T4 construct: purchased Life Technologies (assay service)

JNK2 = biological target: T5, JNK2 (Homo sapiens, UniProt P45984); experiment: Z'-Lyte kinase assay (Life Technologies), JNK2; format: biochemical; settings: for inhibition at 0.1 µM: compound tested at 100 nM, read-out: JNK2^a percent inhibition; for inhibition at 1 µM: compound tested at 1 μM, read-out: JNK2^b percent inhibition
T5 construct: purchased Life Technologies (assay service)

MLK3 = biological target: T6, MLK3 (Homo sapiens, UniProt Q16584); experiment: LanthaScreen Eu kinase assay (Life Technologies), MLK3; format: binding; settings: for IC50: Table 2, read-out: MLK3 (calculated IC50); for inhibition at 0.1 µM: compound tested at 100 nM, read-out: MLK3^a percent inhibition
T6 construct: purchased Life Technologies (assay service)

RD-ES = experiment: Cell proliferation (CellTiter-Glo, 72 hour), RD-ES; format: cell-based; settings: Ewing's sarcoma cell line, read-out: RD-ES inhibition of proliferation (IC50)
CDK7 = biological target: T7, CDK7 (Homo sapiens, UniProt P50613); experiment: Adapta kinase assay (Life Technologies), CDK7; format: biochemical
T7 construct: purchased Life Technologies (assay service)

CDK5/p35 = CDK5/p35 (Homo sapiens, UniProt Q00535); experiment: Z'-Lyte kinase assay (Life Technologies), CDK5/p35; settings: for inhibition at 0.1 µM: read-out: CDK5^a,d percent inhibition; for inhibition at 1 µM: read-out: CDK5^b,d percent inhibition
Description: as §1

143B = experiment: Cell proliferation (CellTiter-Glo, 72 hour), 143B; format: cell-based; settings: Homo sapiens, osteosarcoma cell line, read-out: 143B inhibition of proliferation (IC50)
MNNG-HOS Cl #5 = experiment: Cell proliferation (CellTiter-Glo, 72 hour), MNNG-HOS Cl #5; format: cell-based; settings: osteosarcoma cell line, read-out: MNNG-HOS Cl#5 inhibition of proliferation (IC50)
RS4-11 = experiment: Cell proliferation (CellTiter-Glo, 72 hour), RS4-11; format: cell-based; settings: Homo sapiens, blood cancer cell line, read-out: RS4-11 inhibition of proliferation (IC50)
A673 = experiment: Cell proliferation (CellTiter-Glo, 72 hour), A673; format: cell-based; settings: Homo sapiens, Ewing's sarcoma cell line, read-out: A673 inhibition of proliferation (IC50)
JNK1 = biological target: T8, JNK1 (Homo sapiens, UniProt P45983); experiment: Z'-Lyte kinase assay (Life Technologies), JNK1; format: biochemical; settings: for inhibition at 0.1 µM: compound tested at 100 nM, read-out: JNK1^a percent inhibition; for inhibition at 1 µM: compound tested at 1 μM, read-out: JNK1^b percent inhibition
T8 construct: purchased Life Technologies (assay service)

SAOS = experiment: Cell proliferation (CellTiter-Glo, 72 hour), SAOS; format: cell-based; settings: osteosarcoma cell line, read-out: SAOS inhibition of proliferation (IC50)
CDK5/p25 = CDK5/p25 (Homo sapiens, UniProt Q00535); experiment: Z'-Lyte kinase assay (Life Technologies), CDK5/p25; settings: for inhibition at 0.1 µM: read-out: CDK5^a,c percent inhibition; for inhibition at 1 µM: read-out: CDK5^b,c percent inhibition
Description: as §1

Hs863T = experiment: Cell proliferation (CellTiter-Glo, 72 hour), Hs863T; format: cell-based; settings: Ewing's sarcoma cell line, read-out: Hs863T inhibition of proliferation (IC50)
CDK9/cyclin K = CDK9/cyclin K (Homo sapiens, UniProt P50750); experiment: LanthaScreen Eu kinase assay (Life Technologies), CDK9/cyclin K
Description: as §1

[1] = Table 1C, co-factors cyclin H and MNAT1, read-out: CDK7 IC50
[2] = Table 2, co-factors cyclin H and MNAT1, read-out: CDK7 (calculated IC50)

T6 sequence (Q16584 whole entry): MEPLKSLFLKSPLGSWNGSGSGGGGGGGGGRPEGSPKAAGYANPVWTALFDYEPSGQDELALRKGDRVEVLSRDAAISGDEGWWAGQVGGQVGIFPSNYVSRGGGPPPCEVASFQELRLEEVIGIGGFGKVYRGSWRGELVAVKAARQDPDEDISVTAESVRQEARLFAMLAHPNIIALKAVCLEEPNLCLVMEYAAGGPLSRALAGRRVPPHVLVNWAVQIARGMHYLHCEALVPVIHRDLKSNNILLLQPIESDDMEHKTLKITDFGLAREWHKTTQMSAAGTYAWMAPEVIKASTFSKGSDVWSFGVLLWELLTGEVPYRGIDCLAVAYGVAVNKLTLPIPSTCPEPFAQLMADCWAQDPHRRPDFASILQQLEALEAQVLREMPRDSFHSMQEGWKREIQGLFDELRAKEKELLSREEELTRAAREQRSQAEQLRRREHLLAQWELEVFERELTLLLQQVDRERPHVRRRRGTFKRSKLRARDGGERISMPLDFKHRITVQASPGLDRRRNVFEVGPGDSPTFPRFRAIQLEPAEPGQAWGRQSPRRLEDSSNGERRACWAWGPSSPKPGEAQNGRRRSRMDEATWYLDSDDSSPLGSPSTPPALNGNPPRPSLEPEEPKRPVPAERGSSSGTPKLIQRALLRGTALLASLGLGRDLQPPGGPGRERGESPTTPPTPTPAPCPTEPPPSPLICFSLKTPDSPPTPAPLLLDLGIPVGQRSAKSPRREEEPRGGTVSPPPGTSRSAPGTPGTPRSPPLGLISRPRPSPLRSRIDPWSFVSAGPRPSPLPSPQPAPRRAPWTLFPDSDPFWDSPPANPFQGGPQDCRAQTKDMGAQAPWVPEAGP
T1 sequence (P49336 whole entry): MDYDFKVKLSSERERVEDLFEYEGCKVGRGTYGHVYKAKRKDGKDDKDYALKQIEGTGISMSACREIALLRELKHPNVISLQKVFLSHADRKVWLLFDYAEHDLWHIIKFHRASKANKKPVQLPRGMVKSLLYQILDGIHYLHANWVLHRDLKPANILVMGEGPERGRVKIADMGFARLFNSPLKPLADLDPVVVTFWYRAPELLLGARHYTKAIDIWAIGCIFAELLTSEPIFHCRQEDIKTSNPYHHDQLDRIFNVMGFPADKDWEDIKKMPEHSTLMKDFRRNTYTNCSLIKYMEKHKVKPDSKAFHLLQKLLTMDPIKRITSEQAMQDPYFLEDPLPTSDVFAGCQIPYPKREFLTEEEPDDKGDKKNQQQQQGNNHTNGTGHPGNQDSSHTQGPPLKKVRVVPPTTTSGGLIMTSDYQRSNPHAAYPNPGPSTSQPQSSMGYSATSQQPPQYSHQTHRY
T1 sequence (P24863 whole entry partner): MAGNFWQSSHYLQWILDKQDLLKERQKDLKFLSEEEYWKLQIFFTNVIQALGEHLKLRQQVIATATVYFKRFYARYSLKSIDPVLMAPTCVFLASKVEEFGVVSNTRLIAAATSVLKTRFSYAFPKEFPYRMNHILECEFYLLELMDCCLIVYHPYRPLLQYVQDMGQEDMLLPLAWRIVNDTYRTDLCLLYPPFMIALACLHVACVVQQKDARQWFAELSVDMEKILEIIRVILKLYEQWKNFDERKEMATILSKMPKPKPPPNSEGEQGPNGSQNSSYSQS
T4 sequence (P06493 whole entry): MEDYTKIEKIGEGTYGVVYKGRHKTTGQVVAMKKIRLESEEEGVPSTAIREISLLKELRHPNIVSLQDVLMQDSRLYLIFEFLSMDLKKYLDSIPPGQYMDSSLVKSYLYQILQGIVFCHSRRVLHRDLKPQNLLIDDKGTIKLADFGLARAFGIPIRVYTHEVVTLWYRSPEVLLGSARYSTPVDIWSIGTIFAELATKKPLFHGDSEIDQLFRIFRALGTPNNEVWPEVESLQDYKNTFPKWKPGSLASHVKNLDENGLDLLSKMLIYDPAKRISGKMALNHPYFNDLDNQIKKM
T4 sequence (P14635 whole entry partner): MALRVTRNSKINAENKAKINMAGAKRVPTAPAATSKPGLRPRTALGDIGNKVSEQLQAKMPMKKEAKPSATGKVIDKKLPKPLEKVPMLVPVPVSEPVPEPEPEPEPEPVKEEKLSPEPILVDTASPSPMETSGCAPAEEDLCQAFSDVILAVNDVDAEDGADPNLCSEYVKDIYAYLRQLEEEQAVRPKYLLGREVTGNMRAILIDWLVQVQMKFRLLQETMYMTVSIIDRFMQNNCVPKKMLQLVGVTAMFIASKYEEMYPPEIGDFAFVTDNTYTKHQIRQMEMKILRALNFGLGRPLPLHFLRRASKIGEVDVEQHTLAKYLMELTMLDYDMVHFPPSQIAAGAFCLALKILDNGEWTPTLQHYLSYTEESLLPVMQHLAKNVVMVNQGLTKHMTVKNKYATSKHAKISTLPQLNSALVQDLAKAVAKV
T7 sequence (P50613 whole entry): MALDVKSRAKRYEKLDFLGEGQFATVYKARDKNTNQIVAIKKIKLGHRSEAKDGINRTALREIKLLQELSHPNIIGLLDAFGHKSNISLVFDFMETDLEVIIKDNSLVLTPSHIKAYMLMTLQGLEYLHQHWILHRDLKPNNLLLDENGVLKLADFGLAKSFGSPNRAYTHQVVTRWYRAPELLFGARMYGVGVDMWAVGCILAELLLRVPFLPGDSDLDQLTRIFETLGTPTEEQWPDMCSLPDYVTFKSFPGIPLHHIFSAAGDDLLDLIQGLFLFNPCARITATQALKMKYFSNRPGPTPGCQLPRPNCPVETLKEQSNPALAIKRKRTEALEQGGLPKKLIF
T7 sequence (P51946 whole entry partner): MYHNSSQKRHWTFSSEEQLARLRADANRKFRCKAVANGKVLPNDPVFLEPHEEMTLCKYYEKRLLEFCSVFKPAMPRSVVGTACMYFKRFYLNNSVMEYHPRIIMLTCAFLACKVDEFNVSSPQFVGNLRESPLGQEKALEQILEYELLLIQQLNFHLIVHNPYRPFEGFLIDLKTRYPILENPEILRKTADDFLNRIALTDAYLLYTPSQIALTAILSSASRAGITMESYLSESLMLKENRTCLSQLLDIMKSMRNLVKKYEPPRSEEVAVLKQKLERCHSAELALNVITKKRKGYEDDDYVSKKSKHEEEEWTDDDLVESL
T7 sequence (P51948 whole entry partner): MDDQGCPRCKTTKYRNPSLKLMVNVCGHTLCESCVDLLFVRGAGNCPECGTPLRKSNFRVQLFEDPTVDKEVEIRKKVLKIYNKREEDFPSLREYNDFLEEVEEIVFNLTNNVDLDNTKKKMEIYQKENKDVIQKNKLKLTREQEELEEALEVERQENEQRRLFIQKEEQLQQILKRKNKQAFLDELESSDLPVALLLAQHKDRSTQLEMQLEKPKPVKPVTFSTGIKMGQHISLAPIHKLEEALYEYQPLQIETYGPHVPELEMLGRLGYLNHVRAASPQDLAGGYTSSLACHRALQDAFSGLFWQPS
T2 sequence (P51617 whole entry): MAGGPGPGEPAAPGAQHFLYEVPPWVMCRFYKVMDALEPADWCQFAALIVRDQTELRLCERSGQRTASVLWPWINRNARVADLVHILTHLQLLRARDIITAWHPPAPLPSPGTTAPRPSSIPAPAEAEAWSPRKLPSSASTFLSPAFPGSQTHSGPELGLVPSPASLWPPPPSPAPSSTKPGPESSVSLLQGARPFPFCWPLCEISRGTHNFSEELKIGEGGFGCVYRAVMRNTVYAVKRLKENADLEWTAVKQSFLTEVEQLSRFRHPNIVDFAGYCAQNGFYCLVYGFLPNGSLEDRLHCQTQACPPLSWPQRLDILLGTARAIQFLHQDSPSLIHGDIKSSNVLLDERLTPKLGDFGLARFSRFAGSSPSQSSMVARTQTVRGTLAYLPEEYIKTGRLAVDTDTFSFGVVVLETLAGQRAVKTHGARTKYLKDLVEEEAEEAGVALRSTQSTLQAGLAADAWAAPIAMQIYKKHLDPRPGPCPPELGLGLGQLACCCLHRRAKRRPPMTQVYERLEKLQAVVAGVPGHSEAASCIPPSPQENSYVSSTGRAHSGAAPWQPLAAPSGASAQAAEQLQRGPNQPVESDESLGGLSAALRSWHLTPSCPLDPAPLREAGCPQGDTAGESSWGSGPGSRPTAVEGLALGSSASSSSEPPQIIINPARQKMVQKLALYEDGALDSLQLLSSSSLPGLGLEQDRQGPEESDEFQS
Chain of CDK5/p35 (Q00535 whole entry): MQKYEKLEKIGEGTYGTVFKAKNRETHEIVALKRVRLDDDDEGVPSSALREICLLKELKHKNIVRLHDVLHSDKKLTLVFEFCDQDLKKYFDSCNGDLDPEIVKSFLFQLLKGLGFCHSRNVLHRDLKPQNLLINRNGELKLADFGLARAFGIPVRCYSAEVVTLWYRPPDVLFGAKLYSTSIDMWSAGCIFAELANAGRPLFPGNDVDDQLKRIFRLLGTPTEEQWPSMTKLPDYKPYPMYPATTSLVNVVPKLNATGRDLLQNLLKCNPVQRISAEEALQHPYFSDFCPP
Chain of CDK5/p35 (Q15078 whole entry partner): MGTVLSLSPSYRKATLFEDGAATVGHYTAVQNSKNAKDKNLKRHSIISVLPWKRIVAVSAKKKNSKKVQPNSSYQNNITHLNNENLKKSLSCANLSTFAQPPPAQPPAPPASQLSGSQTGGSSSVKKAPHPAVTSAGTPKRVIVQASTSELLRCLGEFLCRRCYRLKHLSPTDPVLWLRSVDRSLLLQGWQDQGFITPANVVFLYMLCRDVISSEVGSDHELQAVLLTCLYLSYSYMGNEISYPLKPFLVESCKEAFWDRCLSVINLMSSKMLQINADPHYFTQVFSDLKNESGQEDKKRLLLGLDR

CN(C)C/C=C/C(=O)Nc1ccc(C(=O)N[C@H]2CCC[C@H](Nc3ncc(Cl)c(-c4c[nH]c5ccccc45)n3)C2)cc1 [compound 103]
IC50 (Hs822T): > 5000 nM | inhibition at 0.1 µM (CDK9/cyclin T1): < 50% | inhibition at 1 µM (CDK9/cyclin T1): 50 to 70% | inhibition at 0.1 µM (CDK8): < 50% | inhibition at 1 µM (CDK8): < 50% | IC50 (SKBR3): > 5000 nM | inhibition at 0.1 µM (IRAK1): < 50% | inhibition at 1 µM (IRAK1): < 50% | IC50 (THP-1): 500 to 5000 nM | IC50 (MDA-MB231): 500 to 5000 nM | IC50 (Jurkat cells): 500 to 5000 nM | IC50 (MCF7): 500 to 5000 nM | IC50 (MCF10A): < 500 nM | inhibition at 0.1 µM (CDK2): < 50% | inhibition at 1 µM (CDK2): < 50% | IC50 (SK-ES-1): 500 to 5000 nM | IC50 (MV4-11): < 500 nM | IC50 (T47D): > 5000 nM | IC50 (HL60): 500 to 5000 nM | IC50 (hTERT-HME1): 500 to 5000 nM | inhibition at 0.1 µM (CDK1): < 50% | inhibition at 1 µM (CDK1): < 50% | inhibition at 0.1 µM (JNK2): < 50% | inhibition at 1 µM (JNK2): > 70% | IC50 (MLK3): > 1000 nM | inhibition at 0.1 µM (MLK3): < 50% | IC50 (RD-ES): 500 to 5000 nM | IC50 (CDK7; [1]): 100 to 1000 nM | IC50 (CDK7; [2]): 100 to 1000 nM | inhibition at 0.1 µM (CDK5/p35): < 50% | inhibition at 1 µM (CDK5/p35): < 50% | IC50 (143B): > 5000 nM | IC50 (MNNG-HOS Cl #5): > 5000 nM | IC50 (RS4-11): 500 to 5000 nM | IC50 (A673): < 500 nM | inhibition at 0.1 µM (JNK1): < 50% | inhibition at 1 µM (JNK1): 50 to 70% | IC50 (SAOS): 500 to 5000 nM | IC50 (CDK5/p25): > 1000 nM | inhibition at 0.1 µM (CDK5/p25): < 50% | inhibition at 1 µM (CDK5/p25): < 50% | IC50 (Hs863T): > 5000 nM

CN(C)C/C=C/C(=O)Nc1ccc(C(=O)N[C@H]2CCC[C@@H](Nc3ncc(Cl)c(-c4c[nH]c5ccccc45)n3)C2)cc1 [Compound 102, N-((1S,3R)-3-(5-chloro-4-(1H-indol-3-yl)pyrimidin-2-ylamino)cyclohexyl)-4-((E)-4-(dimethylamino)but-2-enamido)benzamide]
IC50 (Hs822T): > 5000 nM | inhibition at 0.1 µM (CDK9/cyclin T1): < 50% | inhibition at 1 µM (CDK9/cyclin T1): < 50% | inhibition at 0.1 µM (CDK8): < 50% | inhibition at 1 µM (CDK8): < 50% | IC50 (SKBR3): > 5000 nM | inhibition at 0.1 µM (IRAK1): < 50% | inhibition at 1 µM (IRAK1): < 50% | IC50 (THP-1): < 500 nM | IC50 (MDA-MB231): < 500 nM | IC50 (Jurkat cells): < 500 nM | IC50 (MCF7): > 5000 nM | IC50 (MCF10A): < 500 nM | inhibition at 0.1 µM (CDK2): < 50% | inhibition at 1 µM (CDK2): < 50% | IC50 (SK-ES-1): < 500 nM | IC50 (MV4-11): < 500 nM | IC50 (T47D): > 5000 nM | IC50 (HL60): < 500 nM | IC50 (hTERT-HME1): < 500 nM | inhibition at 0.1 µM (CDK1): < 50% | inhibition at 1 µM (CDK1): < 50% | inhibition at 0.1 µM (JNK2): < 50% | inhibition at 1 µM (JNK2): 50 to 70% | IC50 (MLK3): > 1000 nM | inhibition at 0.1 µM (MLK3): < 50% | IC50 (RD-ES): < 500 nM | IC50 (CDK7; [1]): < 100 nM | IC50 (CDK7; [2]): < 100 nM | inhibition at 0.1 µM (CDK5/p35): < 50% | inhibition at 1 µM (CDK5/p35): < 50% | IC50 (143B): > 5000 nM | IC50 (MNNG-HOS Cl #5): > 5000 nM | IC50 (RS4-11): < 500 nM | IC50 (A673): < 500 nM | inhibition at 0.1 µM (JNK1): < 50% | inhibition at 1 µM (JNK1): 50 to 70% | IC50 (SAOS): < 500 nM | IC50 (CDK5/p25): > 1000 nM | inhibition at 0.1 µM (CDK5/p25): < 50% | inhibition at 1 µM (CDK5/p25): < 50% | IC50 (Hs863T): > 5000 nM

CN(C)C/C=C/C(=O)Nc1ccc(C(=O)NC2CCCC(Nc3ncc(Cl)c(-c4c[nH]c5ccccc45)n3)C2)cc1 (stereo not shown) [Compound 100, (E)-N-(3-((5-chloro-4-(1H-indol-3-yl)pyrimidin-2-yl)amino)cyclohexyl)-4-(4-(dimethylamino)but-2-enamido)benzamide]
IC50 (CDK9/cyclin T1): 100 to 1000 nM | IC50 (CDK8; Table 2, read-out: CDK8 (calculated IC50)): 100 to 1000 nM | IC50 (CDK2; Table 2, read-out: CDK2 (calculated IC50)): > 1000 nM | IC50 (CDK9/cyclin K): 100 to 1000 nM | IC50 (CDK7; [1]): < 100 nM | IC50 (CDK7; [2]): < 100 nM | IC50 (CDK5/p25): > 1000 nM
